Measurements taken from PubChem BioAssay AID248 (DTP/NCI, 2004).
Several values for one entry are separate records, joined by “and”; a condition that tells them apart may be missing. Equal values may be shown once. Toxic doses and inconclusive results are not listed. No stated cut-off is given here; in the data, active means T/C of 150% or more; inactive means T/C below 125%.

Test system: L1210 leukemia ip in BDF1 mice, survival T/C
Test: NCI In Vivo Anticancer Drug Screen. Data for tumor model L1210 Leukemia (intraperitoneal) in B6D2F1 (BDF1) mice
Conditions: endpoint: mean survival time, higher = longer survival
Summary of the method: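 Transplantable tumor model; survival measured in treated vs vehicle control mice. Value = treated/control.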

[1] = dose: 100.0 mg/kg/injection, schedule: Q04DX003 (ip), vehicle: Klucel (hydroxypropylcellulose) (HPC)
[2] = dose: 200.0 mg/kg/injection, schedule: Q04DX003 (ip), vehicle: Klucel (hydroxypropylcellulose) (HPC)
[3] = dose: 400.0 mg/kg/injection, schedule: Q04DX003 (ip), vehicle: Klucel (hydroxypropylcellulose) (HPC)
[4] = dose: 100.0 mg/kg/injection, schedule: Q04DX003 (ip), vehicle: saline with Tween-80
[5] = dose: 100.0 mg/kg/injection, schedule: Q04DX003 (ip), vehicle: saline
[6] = dose: 200.0 mg/kg/injection, schedule: Q04DX003 (ip), vehicle: saline
[7] = dose: 400.0 mg/kg/injection, schedule: Q04DX003 (ip), vehicle: saline
[8] = dose: 100.0 mg/kg/injection, schedule: Q01DX009 (ip), vehicle: Klucel (hydroxypropylcellulose) (HPC)
[9] = dose: 100.0 mg/kg/injection, schedule: Q01DX001 (ip), vehicle: saline

Measured: T/C

O=C(O)CC(NC(=O)CP(=O)(O)O)C(=O)O (stereo not given)
inactive: dose: 0.39 mg/kg/injection, schedule: Q01DX009 (ip), vehicle: saline 104 % of control | dose: 0.78 mg/kg/injection, schedule: Q01DX009 (ip), vehicle: saline 96 % of control | dose: 1.56 mg/kg/injection, schedule: Q01DX009 (ip), vehicle: saline 100 % of control | dose: 3.12 mg/kg/injection, schedule: Q01DX009 (ip), vehicle: saline 100 % of control | dose: 6.25 mg/kg/injection, schedule: Q01DX009 (ip), vehicle: saline 100 % of control | dose: 12.5 mg/kg/injection, schedule: Q01DX009 (ip), vehicle: saline 98 % of control | dose: 25.0 mg/kg/injection, schedule: Q01DX009 (ip), vehicle: saline 93 % of control and 94 % of control | dose: 50.0 mg/kg/injection, schedule: Q01DX009 (ip), vehicle: saline 96 % of control and 98 % of control | dose: 100.0 mg/kg/injection, schedule: Q01DX009 (ip), vehicle: saline 104 % of control and 122 % of control | dose: 200.0 mg/kg/injection, schedule: Q01DX009 (ip), vehicle: saline 117 % of control and 122 % of control | dose: 225.0 mg/kg/injection, schedule: Q01DX009 (ip), vehicle: saline 113 % of control | dose: 240.0 mg/kg/injection, schedule: Q04DX003 (ip), vehicle: saline 113 % of control | dose: 250.0 mg/kg/injection, schedule: Q01DX009 (ip), vehicle: saline 109 % of control | dose: 275.0 mg/kg/injection, schedule: Q01DX009 (ip), vehicle: saline 109 % of control | dose: 343.0 mg/kg/injection, schedule: Q04DX003 (ip), vehicle: saline 117 % of control | dose: 400.0 mg/kg/injection, schedule: Q01DX009 (ip), vehicle: saline 89 % of control | dose: 490.0 mg/kg/injection, schedule: Q04DX003 (ip), vehicle: saline 113 % of control | dose: 700.0 mg/kg/injection, schedule: Q04DX003 (ip), vehicle: saline 119 % of control

CC1CP(=O)(Cc2ccccc2)C(C)(c2ccccc2)C1=O (stereo not given)
inactive: [1] 93 % of control | [2] 100 % of control | [3] 100 % of control

CCOc1ccc2[nH]c(C)c(CC(=O)O)c2c1
inactive: dose: 100.0 mg/kg/injection, schedule: Q01DX001 (ip), vehicle: saline with Tween-80 97 % of control | dose: 200.0 mg/kg/injection, schedule: Q01DX001 (ip), vehicle: saline with Tween-80 103 % of control | dose: 400.0 mg/kg/injection, schedule: Q01DX001 (ip), vehicle: saline with Tween-80 97 % of control

Cc1ccc(S(=O)(=O)NC(=O)NCCC(C)C)cc1
inactive: [4] 102 % of control | dose: 200.0 mg/kg/injection, schedule: Q04DX003 (ip), vehicle: saline with Tween-80 100 % of control | dose: 400.0 mg/kg/injection, schedule: Q04DX003 (ip), vehicle: saline with Tween-80 96 % of control

CC1CCC(C(C)C)=C(C2CCCCC2)C1 (stereo not given)
inactive: [5] 98 % of control | [6] 104 % of control | [7] 87 % of control

CN(C)C(=S)Oc1ccc(C(=O)O)cc1
inactive: dose: 100.0 mg/kg/injection, schedule: Q01DX001 (ip), vehicle: Klucel (hydroxypropylcellulose) (HPC) 86 % of control | dose: 200.0 mg/kg/injection, schedule: Q01DX001 (ip), vehicle: Klucel (hydroxypropylcellulose) (HPC) 90 % of control | dose: 400.0 mg/kg/injection, schedule: Q01DX001 (ip), vehicle: Klucel (hydroxypropylcellulose) (HPC) 88 % of control

ClC1(c2ccccc2)c2ccc(Br)cc2-c2cc(Br)ccc21
inactive: [8] 103 % of control | [1] 104 % of control | dose: 200.0 mg/kg/injection, schedule: Q01DX009 (ip), vehicle: Klucel (hydroxypropylcellulose) (HPC) 100 % of control | [2] 107 % of control | dose: 400.0 mg/kg/injection, schedule: Q01DX009 (ip), vehicle: Klucel (hydroxypropylcellulose) (HPC) 108 % of control | [3] 94 % of control

O=c1oc2ccc(O)cc2c2ccccc12
inactive: [5] 105 % of control | [6] 97 % of control | [7] 103 % of control

Cc1ccc(N(CCO)CCO)cc1
inactive: dose: 50.0 mg/kg/injection, schedule: Q01DX001 (ip), vehicle: saline 93 % of control | [9] 102 % of control

CCC(=O)c1ccc(-c2ccccc2)cc1
inactive: dose: 175.0 mg/kg/injection, schedule: Q04DX002 (ip), vehicle: Klucel (hydroxypropylcellulose) (HPC) 102 % of control | dose: 350.0 mg/kg/injection, schedule: Q04DX002 (ip), vehicle: Klucel (hydroxypropylcellulose) (HPC) 98 % of control

C/C(=N/N=C(N)N)c1ccc(Cl)cc1
inactive: dose: 15.0 mg/kg/injection, schedule: Q01DX Z (ip), vehicle: carboxymethylcellulose (CMC) 96 % of control | dose: 15.0 mg/kg/injection, schedule: Q01DX Z (oral), vehicle: carboxymethylcellulose (CMC) 108 % of control | dose: 30.0 mg/kg/injection, schedule: Q01DX Z (ip), vehicle: carboxymethylcellulose (CMC) 95 % of control | dose: 30.0 mg/kg/injection, schedule: Q01DX Z (oral), vehicle: carboxymethylcellulose (CMC) 104 % of control | dose: 60.0 mg/kg/injection, schedule: Q01DX Z (oral), vehicle: carboxymethylcellulose (CMC) 98 % of control

CN(C)N=Nc1nn(C2OC(CO)C(O)C2O)cc1C(N)=O (stereo not given)
inactive: dose: 100.0 mg/kg/injection, schedule: Q01DX005 (ip), vehicle: saline 121 % of control | dose: 200.0 mg/kg/injection, schedule: Q01DX005 (ip), vehicle: saline 113 % of control

CCSc1nc(/C=N/NS(=O)(=O)c2ccccc2)c(F)c(=O)[nH]1
inactive: dose: 100.0 mg/kg/injection, schedule: Q01DX001 (ip), vehicle: other 105 % of control | dose: 200.0 mg/kg/injection, schedule: Q01DX001 (ip), vehicle: other 101 % of control | dose: 400.0 mg/kg/injection, schedule: Q01DX001 (ip), vehicle: other 96 % of control

CCC(C)Nc1ccc([N+](=O)[O-])cc1 (stereo not given)
inactive: dose: 75.0 mg/kg/injection, schedule: Q01DX009 (ip), vehicle: other 95 % of control | dose: 150.0 mg/kg/injection, schedule: Q01DX009 (ip), vehicle: other 102 % of control | dose: 300.0 mg/kg/injection, schedule: Q01DX009 (ip), vehicle: other 113 % of control

COC1CCC(CCNC(N)=O)CC1OC (stereo not given)
inactive: dose: 100.0 mg/kg/injection, schedule: Q04DX002 (ip), vehicle: Klucel (hydroxypropylcellulose) (HPC) 100 % of control | dose: 200.0 mg/kg/injection, schedule: Q04DX002 (ip), vehicle: Klucel (hydroxypropylcellulose) (HPC) 117 % of control | dose: 400.0 mg/kg/injection, schedule: Q04DX002 (ip), vehicle: Klucel (hydroxypropylcellulose) (HPC) 90 % of control

N#CSCCSC#N
inactive: dose: 10.0 mg/kg/injection, schedule: Q04DX003 (ip), vehicle: Klucel (hydroxypropylcellulose) (HPC) 99 % of control

O=[N+]([O-])/C=C/c1ccccc1O
inactive: dose: 6.25 mg/kg/injection, schedule: Q04DX003 (ip), vehicle: saline 92 % of control | dose: 12.5 mg/kg/injection, schedule: Q04DX003 (ip), vehicle: saline 101 % of control | dose: 25.0 mg/kg/injection, schedule: Q04DX003 (ip), vehicle: saline 92 % of control

O=[N+]([O-])c1ccc(Oc2ccc[n+]([O-])c2)c([N+](=O)[O-])c1
inactive: dose: 50.0 mg/kg/injection, schedule: Q01DX009 (ip), vehicle: Klucel (hydroxypropylcellulose) (HPC) 102 % of control | [8] 102 % of control | [4] 96 % of control

O=C(Oc1ccccc1)Oc1c(Cl)cc([N+](=O)[O-])cc1[N+](=O)[O-]
inactive: [1] 100 % of control | [2] 100 % of control | [3] 93 % of control

Cc1ccccc1S(=O)(=O)/C(=C(/I)c1ccccc1)c1ccccc1
inactive: [9] 90 % of control | dose: 200.0 mg/kg/injection, schedule: Q01DX001 (ip), vehicle: saline 92 % of control | dose: 400.0 mg/kg/injection, schedule: Q01DX001 (ip), vehicle: saline 95 % of control
